In patent US12084472B2 (Ardelyx, Inc., priority 2015, dated 2024):

Target: T1, human TGR5 (Homo sapiens, UniProt Q8TDU6)
T1 construct: expressed in transfected cells; host or cells: HEK293
T1 sequence (Q8TDU6 1-330): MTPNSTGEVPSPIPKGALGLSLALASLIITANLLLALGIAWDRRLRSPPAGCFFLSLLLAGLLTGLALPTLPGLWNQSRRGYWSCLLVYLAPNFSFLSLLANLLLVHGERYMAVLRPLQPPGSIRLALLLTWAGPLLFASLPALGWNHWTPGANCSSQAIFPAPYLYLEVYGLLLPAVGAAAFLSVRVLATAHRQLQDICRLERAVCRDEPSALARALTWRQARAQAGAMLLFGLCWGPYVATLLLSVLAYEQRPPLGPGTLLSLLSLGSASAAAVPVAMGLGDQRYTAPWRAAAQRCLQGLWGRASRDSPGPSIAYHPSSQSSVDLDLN
Assay: Cell-based TGR5 assay (cAMP generation, HTRF)
Conditions: HEK293 cells stably transfected with human TGR5; cAMP by HTRF; 30 minutes at 37° C.; read-out: pEC50 Human TGR5 (converted)
Summary of the method: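 First, compounds in 3-fold serial dilution were placed in HBSS with 10 mM HEPES pH 7.4 and 0.5 mM IBMX. Next, human TGR5-expressing HEK293 cells were added and incubated 30 min at 37° C. Finally, cAMP was detected by HTRF and pEC50 derived by logistic fitting.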

| EC50 [nM] | SMILES |
| --- | --- |
| < 100 | O=C(NC[C@H](O)[C@@H](O)[C@H](O)[C@H](O)CO)N[C@H]1CC[C@@H](NS(=O)(=O)c2ccc(Cl)c(COC3(c4cnccc4-c4ccccc4OC4CC4)CC3)c2)CC1 [Compound I-419, 3-[(2S,3R,4R,5R)-2,3,4,5,6-pentahydroxyhexyl]-1-[(1s,4s)-4-[4-chloro-3-({1-[4-(2-cyclopropoxyphenyl)pyridin-3-yl]cyclopropoxy}methyl)benzenesulfonamido]cyclohexyl]urea] |
| < 100 | O=C(NCCOCCNS(=O)(=O)c1ccc(Cl)c(COC2(c3cnccc3-c3ccccc3OC3CC3)CC2)c1)NC[C@H](O)[C@@H](O)[C@H](O)[C@H](O)CO (stereo in doubt) [Compound I-403, 1-(2-{2-[4-chloro-3-({1-[4-(2-cyclopropoxyphenyl)pyridin-3-yl]cyclopropoxy}methyl)benzenesulfonamido]ethoxy}ethyl)-3-[(2S,3R,4R,5R)-2,3,4,5,6-pentahydroxyhexyl]urea] |
| < 100 | O=S(=O)(c1ccc(Cl)c(COC2(c3cnccc3-c3ccccc3OC3CC3)CC2)c1)N1CCCCC1 [Compound I-396, 3-(1-{[2-chloro-5-(piperidine-1-sulfonyl)phenyl]methoxy}cyclopropyl)-4-(2-cyclopropoxyphenyl)pyridine] |
| < 100 | CCN(CCCCNC(=O)N[C@@H](CO)[C@@H](O)[C@H](O)[C@H](O)CO)S(=O)(=O)c1ccc(Cl)c(CNC2(c3cnccc3-c3ccccc3OC3CC3)CC2)c1 [Compound I-696, 1-[4-(N-ethyl[4-chloro-3-[([1-[4-(2-cyclopropoxyphenyl)pyridin-3-yl]cyclopropyl]amino)methyl]benzene]sulfonamido)butyl]-3-[(2S,3R,4S,5R)-1,3,4,5,6-pentahydroxyhexan-2-yl]urea] |
| 126 to 1000 | CCC(=O)OC[C@H](NC(=O)NCCCCN(C)S(=O)(=O)c1ccc(Cl)c(COC2(c3cnccc3-c3ccccc3OC3CC3)CC2)c1)[C@@H](OC(=O)CC)[C@H](OC(=O)CC)[C@@H](COC(=O)CC)OC(=O)CC [Compound I-738, (2R,3S,4R,5S)-5-[[(4-[N-methyl[4-chloro-3-([1-[4-(2-cyclopropoxyphenyl)pyridin-3-yl]cyclopropoxy]methyl)benzene]sulfonamido]butyl)carbamoyl]amino]-1,2,4,6-tetrakis(propanoyloxy)hexan-3-yl propanoate] |
| < 100 | CC(CCCC(=O)N(CCCS(C)(=O)=O)C[C@H](O)[C@@H](O)[C@H](O)[C@H](O)CO)c1ccc(Cl)c(CNC2(c3cnccc3-c3ccccc3OC3CC3)CC2)c1 (stereo partly drawn) [Compound I-347, 5-{4-chloro-3-[({1-[4-(2-cyclopropoxyphenyl)pyridin-3-yl]cyclopropyl}amino)methyl]phenyl}-N-(3-methanesulfonylpropyl)-N-[(2S,3R,4R,5R)-2,3,4,5,6-pentahydroxyhexyl]hexanamide] |
| < 100 | Cc1ccc([C@@H](C)CCCC(=O)N(CCS(C)(=O)=O)C[C@H](O)[C@@H](O)[C@H](O)[C@H](O)CO)cc1CNC1(c2cnccc2-c2ccccc2OC2CC2)CC1 (single isomer, unassigned) [Compound I-367] |
| 126 to 1000 | O=C(CCCSc1ccc(Cl)c(COC2(c3cnccc3-c3ccccc3OC3CC3)CC2)c1)N(CCCCCO)C[C@H](O)[C@@H](O)[C@H](O)[C@H](O)CO [Compound I-684, 4-f{[4-chloro-3-({1-[4-(2-cyclopropoxyphenyl)pyridin-3-yl]cyclopropoxy}methyl)phenyl]sulfanyl}-N-(5-hydroxypentyl)-N-[(2S,3R,4R,5R)-2,3,4,5,6-pentahydroxyhexyl]butanamide] |
| < 100 | CC(OCc1cc(S(=O)(=O)N(CCCCNC(=O)NC[C@H](O)[C@@H](O)[C@H](O)[C@H](O)CO)C(C)C)ccc1Cl)c1cnccc1-c1ccccc1OC1CC1 (stereo partly drawn) [Compound I-753, 4-chloro-3-((1-(4-(2-cyclopropoxyphenyl)pyridin-3-yl)ethoxy)methyl)-N-isopropyl-N-(4-(3-((2S,3R,4R,5R)-2,3,4,5,6-pentahydroxyhexyl)ureido)butyl)benzenesulfonamide] |

Further lines, the compound ahead of its results:

| SMILES | EC50 [nM] |
| --- | --- |
| O=C(NCCCCCc1cc(Cl)c(COC2(c3cnccc3-c3ccccc3OC3CC3)CC2)cc1Cl)NC[C@H](O)[C@@H](O)[C@H](O)[C@H](O)CO (stereo in doubt) [Compound I-225, 1-{5-[2,5-dichloro-4-({1-[4-(2-cyclopropoxyphenyl)pyridin-3-yl]cyclopropoxy}methyl)phenyl]pentyl}-3-[(2S,3R,4R,5R)-2,3,4,5,6-pentahydroxyhexyl]urea] | < 100 |
| Cc1cc(COC2(c3cnccc3-c3ccccc3OC3CC3)CC2)c(Cl)cc1CCCCNC(=O)N[C@H](CCCCN)C(=O)O [Compound I-119, (2R)-6-amino-2-[({4-[5-chloro-4-({1-[4-(2-cyclopropoxyphenyl)pyridin-3-yl]cyclopropoxy}methyl)-2-methylphenyl]butyl}carbamoyl)amino]hexanoic acid] | 126 to 1000 |
| C[C@H](CCCN)c1ccc(Cl)c(CNC2(c3cnccc3-c3ccccc3OC3CC3)CC2)c1 (single isomer, unassigned) [Compound I-251] | < 100 |
| CC(CCCC(=O)N(C[C@@H](O)[C@H](O)[C@@H](O)[C@@H](O)CO)CC(C)(C)CO)c1ccc(Cl)c(CNC2(c3cnccc3-c3ccccc3OC3CC3)CC2)c1 (stereo partly drawn) [Compound I-341, 5-{4-chloro-3-[({1-[4-(2-cyclopropoxyphenyl)pyridin-3-yl]cyclopropyl}amino)methyl]phenyl}-N-(3-hydroxy-2,2-dimethylpropyl)-N-[(2R,3S,4S,5S)-2,3,4,5,6-pentahydroxyhexyl]hexanamide] | < 100 |
| O=C(NC[C@H](O)[C@@H](O)[C@H](O)[C@H](O)CO)NC1CCN(C(=O)CCCCc2cc(Cl)c(COC3(c4cnccc4-c4ccccc4OC4CC4)CC3)cc2Cl)CC1 (stereo in doubt) [Compound I-158, 1-(1-{5-[2,5-dichloro-4-({1-[4-(2-cyclopropoxyphenyl)pyridin-3-yl]cyclopropoxy}methyl)phenyl]pentanoyl}piperidin-4-yl)-3-[(2S,3R,4R,5R)-2,3,4,5,6-pentahydroxyhexyl]urea] | < 100 |
| CN(C[C@H](O)[C@@H](O)[C@H](O)[C@H](O)CO)C(=O)CCCCc1ccc(Cl)c(COC2(c3cnccc3-c3ccccc3OC3CC3)CC2)c1 (stereo in doubt) [Compound I-232, 5-[4-chloro-3-({1-[4-(2-cyclopropoxyphenyl)pyridin-3-yl]cyclopropoxy}methyl)phenyl]-N-methyl-N-[(2S,3R,4R,5R)-2,3,4,5,6-pentahydroxyhexyl]pentanamide] | < 100 |
| Cc1cc(COC2(c3cnccc3-c3ccccc3OC3CC3)CC2)c(Cl)cc1CCCCN [Compound I-166, 4-[5-chloro-4-({1-[4-(2-cyclopropoxyphenyl)pyridin-3-yl]cyclopropoxy}methyl)-2-methylphenyl]butan-1-amine] | < 100 |
| CC(CCCCNC(=O)NC[C@H](O)[C@@H](O)[C@H](O)[C@H](O)CO)c1ccc(Cl)c(COC2(c3cnccc3-c3ccccc3OC3CC3)CC2)c1 (stereo partly drawn) [Compound I-275, 1-{5-[4-chloro-3-({1-[4-(2-cyclopropoxyphenyl)pyridin-3-yl]cyclopropoxy}methyl)phenyl]hexyl}-3-[(2S,3R,4R,5R)-2,3,4,5,6-pentahydroxyhexyl]urea] | < 100 |
| FC(F)(F)COc1ccccc1-c1ccncc1C1(NCc2cc(Cl)ccc2Cl)CC1 [Compound I-8, N-[(2,5-dichlorophenyl)methyl]-1-{4-[2-(2,2,2-trifluoroethoxy)phenyl]pyridin-3-yl}cyclopropan-1-amine] | 126 to 1000 |
| FC(F)(F)c1ccc(Cl)cc1COC1(c2cnccc2-c2ccccc2OC2CC2)CC1 [Compound I-51, 3-(1-{[5-chloro-2-(trifluoromethyl)phenyl]methoxy}cyclopropyl)-4-(2-cyclopropoxyphenyl) pyridine] | 126 to 1000 |
| CCc1ccccc1-c1ccncc1C1(NCc2cc(Cl)ccc2Cl)CC1 [Compound I-9, N-[(2,5-dichlorophenyl)methyl]-1-[4-(2-ethylphenyl)pyridin-3-yl]cyclopropan-1-amine] | 126 to 1000 |
| CC(OCCc1cc(Cl)c(COC2(c3cnccc3-c3ccccc3OC3CC3)CC2)cc1Cl)C(=O)NC[C@H](O)[C@@H](O)[C@H](O)[C@H](O)CO (stereo partly drawn) [Compound I-152, 2-{2-[2,5-dichloro-4-({1-[4-(2-cyclopropoxyphenyl)pyridin-3-yl]cyclopropoxy}methyl)phenyl]ethoxy}-N-[(2S,3R,4R,5R)-2,3,4,5,6-pentahydroxyhexyl]propanamide] | 126 to 1000 |
| CCN(CCCCc1cc(Cl)c(COC2(c3cnccc3-c3ccccc3OC3CC3)CC2)cc1Cl)C(=O)[C@@H](O)[C@@H](O)[C@H](O)[C@@H](O)CO (stereo in doubt) [Compound I-209, (2S,3S,4R,5S)-N-{4-[2,5-dichloro-4-({1-[4-(2-cyclopropoxyphenyl)pyridin-3-yl]cyclopropoxy}methyl)phenyl]butyl}-N-ethyl-2,3,4,5,6-pentahydroxyhexanamide] | < 100 |
| O=C(CCCCc1cc(Cl)c(COC2(c3cnccc3-c3ccccc3OC3CC3)CC2)cc1Cl)N[C@@H]1[C@@H](O)[C@H](O)[C@@H](CO)O[C@H]1O [Compound I-154, 5-[2,5-dichloro-4-({1-[4-(2-cyclopropoxyphenyl)pyridin-3-yl]cyclopropoxy}methyl)phenyl]-N-[(2R,3R,4R,5S,6R)-2,4,5-trihydroxy-6-(hydroxymethyl)oxan-3-yl]pentanamide] | < 100 |
